Measured values as given in US10239957B2, “Peptide containing conjugates for dual molecular delivery of oligonucleotides” (Merck Sharp & Dohme Corp., priority 2013, dated 2019).
Where no end group is shown, it is not given here. [ ]: non-standard residue; d: D form. TGN = not defined here

System: CTNNB1
Assay: In vitro DMD assay: mRNA silencing enhancement by peptide conjugates after siRNA-IV treatment
Type: cell-based
Settings: primary mouse hepatocytes, siRNA-IV 125 nM baseline
Protocol: Cryopreserved primary Mouse hepatocytes (Bioreclamation, LLC) were placed into Collagen Type I coated 96-well plates at 25,000 cells per well in serum-containing InVitroGRO CP media (Bioreclamation, LLC) and allowed 5 hours to attach. Media was replaced with InVitroGRO HI media and cells were treated with siRNA-IV at 125 nM [siRNA] for 1 hour. Media was replaced with InVitroGRO HI media and cells were treated for approximately 16 hours with experimental Peptide conjugates at various concentrations to establish a dose-response curve. Peptide conjugates were washed out after 16 hours with InVitroGRO HI media and cells allowed to incubate for an additional 24 hours. Cells were then lysed and mRNA expression of the siRNA target was measured by RT-qPCR (Applied Biosystems Taqman reagents). mRNA silencing activity of each Peptide conjugate was expressed as an enhancement above the baseline activity of 125 nM siRNA-IV alone with respect to the untreated cells and all siRNA target Ct values were normalized to PPIB mRNA for each well (dddCt) and summarized.
The structure of TGN-S-S-peptide is shown below and the activity data is listed in Table 5 (siRNA-IV concentration was kept at […]).

Substance	In vitro dddCt (vs. baseline SCE dose) (Targeted peptide dose 8 nM)	In vitro dddCt (vs. baseline SCE dose) (Targeted peptide dose 40 nM)	In vitro dddCt (vs. baseline SCE dose) (Targeted peptide dose 200 nM)	In vitro dddCt (vs. baseline SCE dose) (Targeted peptide dose 1000 nM)	In vitro dddCt (vs. baseline SCE dose) (Targeted peptide dose 5000 nM)
TGN-S-S-SEQ ID NO: 1794 (D) ([dC]G[dL][dF]G[dA][dI][dE][dE][dL][dI][dE][dE]G[dL][dE][dN][dL][dI][dD][dW]G[dN]G; not fully specified (residue 1); also: TGN conjugated via disulfide at Cys1; listed as Homo sapiens)	−0.09	−0.8	−2.22	−2.71	−2.61
TGN-S-S-SEQ ID NO: 1795 (D) ([dC]G[dF][dF]G[dE][dI][dE][dE][dL][dI][dE][dE]G[dL][dE][dN][dL][dI][dD][dW]G[dN]G; not fully specified (residue 1); also: TGN conjugated via disulfide at Cys1; listed as Homo sapiens)	−0.1	−0.33	−0.71	0.94	−0.71
TGN-S-S-SEQ ID NO: 1796 (D) ([dC]G[dL][dW]G[dE][dI][dE][dE][dL][dI][dE][dE]G[dL][dE][dN][dL][dI][dD][dW]G[dN]G; not fully specified (residue 1); also: TGN conjugated via disulfide at Cys1; listed as Homo sapiens)	0.05	−0.56	−1.13	−1.98	−1.81
TGN-S-S-SEQ ID NO: 1797 (D) ([dC]G[dL][dF]G[dE][dW][dE][dE][dL][dI][dE][dE]G[dL][dE][dN][dL][dI][dD][dW]G[dN]G; not fully specified (residue 1); also: TGN conjugated via disulfide at Cys1; listed as Homo sapiens)	0	0.41	0.08	0.05	0.24
TGN-S-S-SEQ ID NO: 1798 (D) ([dC]G[dL][dF]G[dE][dF][dE][dE][dL][dI][dE][dE]G[dL][dE][dN][dL][dI][dD][dW]G[dN]G; not fully specified (residue 1); also: TGN conjugated via disulfide at Cys1; listed as Homo sapiens)	−0.09	−0.69	−0.13	−0.26	−0.18
TGN-S-S-SSEQ ID NO: 1799(D) ([dC]G[dL][dF]G[dE][dI][dE][dE][dL][dI][dE][dE]G[dL][dE][dN][dL][dL][dD][dW]G[dN]G; not fully specified (residue 1); also: TGN conjugated via disulfide at Cys1; listed as Homo sapiens)	0.03	−0.45	−1.63	−2.13	−2.22
TGN-S-S-Seq-ID-25 (D) ([dC][dI][dF]G[dA][dI][dA]G[dF][dI][dK][dN][dI][dW][dE]G[dL][dI][dD][dA][dF]; not fully specified (residue 1); also: disulfide-linked to TGN peptide via Cys; listed as Homo sapiens)	−0.06	0.2	−0.13	0.01	−1.72
TGN-S-S-Seq-ID-37 (L) (C(TGN)IFGAIAGFIKNIWKGLIDWWYG; reading uncertain; also: disulfide-linked to TGN peptide via Cys; listed as Homo sapiens)	0.02	0.14	−0.01	−0.19	−0.79
TGN-S-S-Seq-ID-54 (L) (C(TGN)FFGAIWEFIRSILEGLIDGWYGYGRKKRRQRR; reading uncertain; also: disulfide-linked to TGN peptide via Cys; listed as Homo sapiens)	0.03	−0.07	−0.16	−0.03	0.07
TGN-S-S-Seq-ID-55 (L) (C(TGN)GLFHALLHLLHSLWHLLLHAWYGYGRKKRRQRR; reading uncertain; also: disulfide-linked to TGN peptide via Cys; listed as Homo sapiens)	0.11	0.08	0.12	0.05	−0.01
TGN-S-S-Seq-ID-56 (L) (C(TGN)GLFHALLHLLHSLWHLLLHAWYGYGHKKHHQHR; reading uncertain; also: disulfide-linked to TGN peptide via Cys; listed as Homo sapiens)	0.02	0.05	−0.12	−0.08	−0.58
TGN-S-S-Seq-ID-57 (L) (C(TGN)GLFGALLELLESLWKGLLEWYGRKKRRQRR; reading uncertain; also: disulfide-linked to TGN peptide via Cys; listed as Homo sapiens)	0.1	0	0.02	0.1	0.09
TGN-S-S-Seq-ID-58 (D) (CRRQRRKKRGYGYWGDILGEWGNEIFGEIAEFLG; not fully specified; TGN disulfide conjugate; D-amino acids; listed as Homo sapiens)	−0.05	−0.03	−0.25	−0.26	−0.3
TGN-S-S-Seq-ID-61 (D) (CRRQRRKKRGYGYWWDILGKWGNEIFGEIAEFLG; not fully specified; TGN disulfide conjugate; D-amino acids; listed as Homo sapiens)	0.13	0.08	0.01	0	−0.55
TGN-S-S-Seq-ID-65 (D) ([dC][dI][dF]G[dA][dI][dA]G[dF][dI][dK][dN][dI][dW][dK]; not fully specified (residue 1); also: disulfide-linked to TGN peptide via Cys; listed as Homo sapiens)	0	−0.73	−1.48	−1.88	−2.68
